System: TGFb/SMAD Signaling Pathway SBE reporter cell line
Experiment: TGFb reporter assay (TGFb/SMAD Signaling Pathway SBE luciferase reporter cell line)
Format: cell-based
Details: 5-6 h preincubation, then TGFb, 18 h, luciferase luminescence
Description: TGFβ/SMAD Signaling Pathway SBE reporter cell line was obtained from BPS Bioscience. Cells were passed, expanded, and stored in liquid nitrogen as per the supplier's instructions with the exception that growth media is changed to DMEM-C with Geneticin (DMEM supplemented with 10% fetal bovine serum, 1×NEAA, 1 mM Pyruvate, 2 mM glutamine, 50 μg/mL penicillin, 50 U/mL streptomycin and 400 μg/mL of Geneticin). The assay media was MEM supplemented with 0.5% fetal bovine serum, 1×NEAA, 1 mM Pyruvate, 50 μg/mL penicillin and 50 U/mL streptomycin.
TGFb/SMAD Signaling Pathway SBE reporter cell line was obtained from BPS Bioscience. Cells were passed/expanded/stored in liquid nitrogen per supplier's instruction with the exception that growth media was changed to DMEM-C with Geneticin (DMEM supplemented with 10% fetal bovine serum, IX NEAA, 1 mM Pyruvate, 2 mM glutamine, 50 μg/mL penicillin, 50 U/mL streptomycin and 400 ug/mL of Geneticin). The assay media was MEM supplemented with 0.5% fetal bovine serum, IX NEAA, 1 mM Pyruvate, 50 μg/mL penicillin and 50 U/mL streptomycin.
Reporter cells were harvested from the tissue culture flasks by incubation in small quantity of Versene at room temperature for three to five minutes after the media in the flask was removed and cells rinsed with PBS. Cells were counted and diluted in the assay media at 0.8×10^6 cells/mL then 50 uL/well were added to 96-well assay plate. Test samples (at desired concentrations diluted in assay media) were added to assay plate containing the 50 uL/well of cells (or media only), 50 uL per well, and incubated for 5-6 hours at 37° C. in a 5% CO2 humidified incubator. After that time, 15 uL of TGFb diluted to 12.5 ng/mL in the assay media was added to the plate. Controls included TGFb titration (from 25 to 0 ng/mL) without inhibitors, and media only (without cells, inhibitor or TGFb). Plates were incubated at 37° C. in a […] humidified incubator for 18 h. Luciferase substrate solution was subsequently added at 75 uL per well, incubated in dark with shaking at room temperature for 10 min, and luminescence was measured using a luminometer.

EC50 [nM] | SMILES
10 to 100 | Cc1cccc(-c2nc(CNCc3ccccc3-c3cccc(F)c3)[nH]c2-c2ccc3ncnn3c2)n1 [Compound 37]
0.1 to 10 | Cc1cccc(-c2nc(CNCCN(C)c3ccccc3)[nH]c2-c2ccc3nccnc3c2)n1 [Compound 88]
10 to 100 | Cc1cccc(-c2nc(CNCc3ccccc3-c3ccccn3)[nH]c2-c2ccc3ncnn3c2)n1 [Compound 40]
0.1 to 10 | Cc1cccc(-c2nc(CNCc3ccccc3C)[nH]c2-c2ccc3ncnn3c2)n1 [Compound 21]
10 to 100 | Cc1cccc(-c2nc(CNCc3cccc(C)c3-c3ccccc3)[nH]c2-c2ccc3ncnn3c2)n1 [Compound 48]
10 to 100 | Cc1cccc(-c2nc(CNCc3ccccc3-c3ccncc3)[nH]c2-c2ccc3ncnn3c2)n1 [Compound 42]
0.1 to 10 | Cc1cccc(-c2nc(CNCc3ccccc3C)[nH]c2-c2ccc3nccnc3c2)n1 [Compound 86]
100 to 1000 | COc1ccc(CNCc2nc(-c3cccc(C)n3)c(-c3ccc4ncnn4c3)[nH]2)cc1 [Compound 8]
0.1 to 10 | COc1ccccc1CCNCc1nc(-c2cccc(C)n2)c(-c2ccc3nccnc3c2)[nH]1 [Compound 87]
0.1 to 10 | Cc1cccc(-c2nc(CNCc3ccccc3-c3ccccc3F)[nH]c2-c2ccc3ncnn3c2)n1 [Compound 38]
10 to 100 | Cc1cccc(-c2nc(CNCc3ccccc3C3CCCC3)[nH]c2-c2ccc3ncnn3c2)n1 [Compound 44]
100 to 1000 | Cc1cccc(-c2nc(CNCc3ccccc3-c3cccc(CNC(=O)OC(C)(C)C)c3)[nH]c2-c2ccc3ncnn3c2)n1 [Compound 30]
100 to 1000 | Cc1cccc(-c2nc(CNCc3ccccc3-c3ccccc3)[nH]c2-c2ccc3c(c2)OCO3)n1 [Compound 71]
0.1 to 10 | CCc1ccccc1CNCc1nc(-c2cccc(C)n2)c(-c2ccc3ncnn3c2)[nH]1 [Compound 22]
100 to 1000 | Cc1cccc(-c2nc(CNCCc3c(F)cccc3F)[nH]c2-c2ccnc3ccccc23)n1 [Compound 79]
10 to 100 | Cc1cccc(-c2nc(CNCc3ccccc3-c3ccc(F)c(F)c3)[nH]c2-c2ccc3ncnn3c2)n1 [Compound 36]
0.1 to 10 | Cc1cccc(-c2nc(CNCc3cccc(Cl)c3C)[nH]c2-c2ccc3ncnn3c2)n1 [Compound 47]
0.1 to 10 | Cc1cccc(-c2nc(CNCc3ccccc3-c3cccnc3)[nH]c2-c2ccc3ncnn3c2)n1 [Compound 41]
0.1 to 10 | Cc1cccc(-c2nc(CNCc3ccccc3N(C)C)[nH]c2-c2ccc3ncnn3c2)n1 [Compound 25]
100 to 1000 | Cc1cccc(-c2nc(CNCc3ccccc3C3CCCCC3)[nH]c2-c2ccc3ncnn3c2)n1 [Compound 43]
0.1 to 10 | Cc1cccc(-c2nc(CNCc3ccccc3Oc3cccnc3)[nH]c2-c2ccc3ncnn3c2)n1 [Compound 54]
0.1 to 10 | Cc1cccc(-c2nc(CNCc3ccccc3C)[nH]c2-c2ccc3ncccc3n2)n1 [Compound 83]

EC50 [nM] | SMILES
10 to 100 | Cc1cccc(-c2nc(CNCc3ccccc3)[nH]c2-c2ccc3c(c2)OCO3)n1 [Compound 76]
0.1 to 10 | Cc1cccc(-c2nc(CNCc3c(Cl)cccc3Cl)[nH]c2-c2ccc3ncnn3c2)n1 [Compound 6]
10 to 100 | Cc1cccc(-c2nc(CNCc3ccccc3-c3cc(F)cc(F)c3)[nH]c2-c2ccc3ncnn3c2)n1 [Compound 39]
100 to 1000 | Cc1cccc(-c2nc(CNCc3ccccc3-c3cccc(CN)c3)[nH]c2-c2ccc3ncnn3c2)n1 [Compound 33]
10 to 100 | Cc1cccc(-c2nc(CNCc3ccccc3-c3ccccc3)[nH]c2-c2ccc3nccnc3c2)n1 [Compound 72]
100 to 1000 | Cc1cccc(-c2nc(CNCc3ccccc3)[nH]c2-c2ccnc3ccccc23)n1 [Compound 74]
10 to 100 | Cc1cccc(-c2nc(CNCc3cccc(-c4ccccc4)c3C)[nH]c2-c2ccc3ncnn3c2)n1 [Compound 49]
10 to 100 | Cc1cccc(-c2nc(CNCc3cccc(Oc4ccccc4)c3)[nH]c2-c2ccc3ncnn3c2)n1 [Compound 56]
10 to 100 | Cc1cccc(-c2nc(CNCc3cccc(Oc4ccncc4)c3)[nH]c2-c2ccc3ncnn3c2)n1 [Compound 58]
100 to 1000 | Cc1cccc(-c2nc(CNCc3ccccc3-c3ccc(CNC(=O)OC(C)(C)C)cc3)[nH]c2-c2ccc3ncnn3c2)n1 [Compound 31]
0.1 to 10 | Cc1cccc(-c2nc(CNCc3ccccc3-c3ccc(F)cc3)[nH]c2-c2ccc3ncnn3c2)n1 [Compound 35]
0.1 to 10 | Cc1cccc(-c2nc(CNCc3ccccc3)[nH]c2-c2ccc3ncnn3c2)n1 [Compound 1, 1-(5-([1,2,4]triazolo[1,5-a]pyridin-6-yl)-4-(6-methylpyridin-2-yl)-1H-imidazol-2-yl)-N-benzylmethanamine]
0.1 to 10 | Cc1cccc(-c2nc(CNCc3ccccc3CC(F)(F)F)[nH]c2-c2ccc3ncnn3c2)n1 [Compound 27]
0.1 to 10 | Cc1cccc(-c2nc(CNCc3ccccc3C(C)C)[nH]c2-c2ccc3ncnn3c2)n1 [Compound 23]
100 to 1000 | Cc1cccc(-c2nc(CNCCc3c(F)cccc3F)[nH]c2-c2ccncc2)n1 [Compound 80]
0.1 to 10 | Cc1cccc(-c2nc(CNCc3ccccc3-c3ccccc3)[nH]c2-c2ccc3ncnn3c2)n1 [Compound 24]
0.1 to 10 | Cc1cccc(-c2nc(CNCCNc3ccccc3)[nH]c2-c2ccc3ncnn3c2)n1 [Compound 66]
100 to 1000 | COC(=O)[C@H](NCc1nc(-c2cccc(C)n2)c(-c2ccc3ncnn3c2)[nH]1)c1ccccc1 [Compound 15]
10 to 100 | Cc1cccc(-c2nc(CNCCc3c(F)cccc3F)[nH]c2-c2ccc3c(c2)OCO3)n1 [Compound 81]
1000 to 10000 | Cc1cccc(-c2nc(CNCc3ccccc3Oc3ccncc3)[nH]c2-c2ccc3ncnn3c2)n1 [Compound 55]
0.1 to 10 | Cc1cccc(-c2nc(CNCCN(C)c3ccccc3)[nH]c2-c2ccc3ncccc3n2)n1 [Compound 85]
0.1 to 10 | Cc1cccc(-c2nc(CNCCCc3ccccc3)[nH]c2-c2ccc3ncnn3c2)n1 [Compound 64]

EC50 [nM] | SMILES
0.1 to 10 | Cc1cccc(-c2nc(CNCCc3c(F)cccc3F)[nH]c2-c2ccc3ncccc3n2)n1 [Compound 78]
100 to 1000 | Cc1cccc(-c2nc(CNCc3cccc(-c4ccccc4)c3)[nH]c2-c2ccc3ncnn3c2)n1 [Compound 51]
0.1 to 10 | Cc1cccc(-c2nc(CNC(c3ccccc3)c3ccccc3)[nH]c2-c2ccc3ncnn3c2)n1 [Compound 13]
0.1 to 10 | Cc1cccc(-c2nc(CNCCc3c(F)cccc3F)[nH]c2-c2ccc3ncnn3c2)n1 [Compound 60]
0.1 to 10 | Cc1cccc(-c2nc(CNCc3ccccc3OC(F)(F)F)[nH]c2-c2ccc3ncnn3c2)n1 [Compound 26]
10 to 100 | Cc1cccc(-c2nc(CN[C@H](C)c3ccccc3)[nH]c2-c2ccc3ncnn3c2)n1 [Compound 11]
100 to 1000 | Cc1cccc(-c2nc(CNCc3ccccc3-c3ccc(CN)cc3)[nH]c2-c2ccc3ncnn3c2)n1 [Compound 34]
10 to 100 | Cc1cccc(-c2nc(CNCc3ccccc3-c3ccccc3)[nH]c2-c2ccc3ncccc3c2)n1 [Compound 91]
0.1 to 10 | Cc1cccc(-c2nc(CNCCc3cccc(F)c3)[nH]c2-c2ccc3ncnn3c2)n1 [Compound 61]
0.1 to 10 | Cc1cccc(-c2nc(CNCc3cccc(C)c3C)[nH]c2-c2ccc3ncnn3c2)n1 [Compound 45]
100 to 1000 | Cc1cccc(-c2nc(CNCc3ccccc3-c3ccccc3CN)[nH]c2-c2ccc3ncnn3c2)n1 [Compound 32]
0.1 to 10 | Cc1cccc(-c2nc(CNCc3ccccc3C(O)C(F)(F)F)[nH]c2-c2ccc3ncnn3c2)n1 (stereo not drawn) [Compound 28]
10 to 100 | Cc1cccc(CNCc2nc(-c3cccc(C)n3)c(-c3ccc4ncnn4c3)[nH]2)c1 [Compound 50]
0.1 to 10 | Cc1cccc(-c2nc(CNCc3ccccc3)[nH]c2-c2ccc3nccnc3c2)n1 [Compound 77]
10 to 100 | COc1ccc(OC)c(CNCc2nc(-c3cccc(C)n3)c(-c3ccc4ncnn4c3)[nH]2)c1 [Compound 9]
0.1 to 10 | Cc1cccc(-c2nc(CNCCc3ccc(F)cc3F)[nH]c2-c2ccc3ncnn3c2)n1 [Compound 63]
0.1 to 10 | Cc1cccc(-c2nc(CNCc3ccccc3F)[nH]c2-c2ccc3ncnn3c2)n1 [Compound 18]
0.1 to 10 | Cc1cccc(-c2nc(CNCc3ccccc3Oc3ccccc3)[nH]c2-c2ccc3ncnn3c2)n1 [Compound 53]
0.1 to 10 | Cc1cccc(-c2nc(CNCCN(C)c3ccccc3)[nH]c2-c2ccc3ncnn3c2)n1 [Compound 67]
100 to 1000 | Cc1cccc(-c2nc(CNCc3ccccc3)[nH]c2-c2ccc3ncccc3n2)n1 [Compound 73]
100 to 1000 | Cc1cccc(-c2nc(CNCc3ccccc3)[nH]c2-c2ccccn2)n1 [Compound 75]
0.1 to 10 | COc1cccc(CNCc2nc(-c3cccc(C)n3)c(-c3ccc4ncnn4c3)[nH]2)c1C [Compound 46]
